Data as given in patent US5783179A, “C-reactive protein fragment with immunomodulatory activity” (Syntex (U.S.A.) Inc., priority 1991, dated 1998).

Test system: T241 fibrosarcoma lung metastases
Test: Mouse T241 fibrosarcoma model: evaluation of lung metastases after amputation of the tumor-bearing foot
Format: in vivo, male C57BL/6 mice
Settings: Day 35, soluble CRP-peptide 1.25 μg per dose
Experimental: The CRP-peptide was assayed for activity in the mouse T241 fibrosarcoma model, whereby the ability to block lung metastasis formation is measured.
The procedures have been described in detail previously (Deodhar, et al, Cancer Res 42:5084-5088, 1982). Suspensions of 5×10^5 viable T241 fibrosarcoma cells in 0.1 ml of Hanks's balanced salt solution were injected subcutaneously into the dorsum of one hind foot of ten male C57BL/6 mice (Jackson Laboratories, Bar Harbor, Me.) per experiment. Seventeen days after tumor implantation, the tumor-bearing foot was amputated below the knee. The mean tumor weight at this stage was 152 ±58 (S.E.M.) mg. The tumor weight was determined by subtracting the weight of an amputated normal foot from that of a tumor-bearing foot. Previous studies have shown that T241 fibrosarcoma starts seeding the lung parenchyma by Day 10 after foot tumor implantation; by Day 17, virtually all animals have lung macro- and/or micrometastases. The animals were then randomized into control and experimental groups, and appropriate therapy was started after amputation of the tumor-bearing foot.
Treatments consisted of intravenous (orbital sinus) injections of liposomes containing CRP, liposomal CRP-peptide of Example 2, or liposomal CRP-peptide of Example 2 plus intraperitoneal injections of non-encapsulated soluble recombinant interleukin-2 (Cetus Corp., Emeryville, Calif.), or non-encapsulated interleukin-2 (IL-2) alone, whereas the control groups received either no treatment, liposomes containing buffer medium alone, or liposomes containing buffer medium plus non-encapsulated CRP peptide. […] On Day 35 of the experiment, all animals were killed, and the lungs were evaluated for number and size of metastases.
Tumor metastases could be clearly recognized as raised, hemorrhagic, opaque, and dense nodules, distinguishable from the smooth, glistening, spongy, and pink normal lung parenchyma. […] To obtain an approximate assessment of the total metastatic tumor burden in the lungs, the "metastatic index", reflecting both number and size of metastases, was calculated as follows. […]

With H-IYLGGPFSPNVL-OH [Soluble CRP-peptide] the “No. of Metastatic Foci (+ SEM)” value (MLV: 0.25 μg CRP or CRP-peptide i.v. 3x per week for 2 weeks) was 12.9 ± 2.9, the “No. Animals with Lung Metastases” value (MLV: 2.5 μmols lipid containing 0.25 μg CRP or CRP-peptide i.v. 3x per week for 2 weeks) was 10/10 and the “Metastatic Index (+ SEM)” value (mean of group, MLV: 0.25 μg CRP or CRP-peptide i.v. 3x per week for 2 weeks) was 49.7 ± 10.1.
